Reference: patent US6552014B2, “Methods of inhibiting platelet activation with selective serotonin reuptake inhibitors” (HeartDrug Research, L.L.C., priority 1999, dated 2003)

Tests used:
[1] = test system: GP IIb/IIIa; assay: Whole blood flow cytometry; assay type: cell-based, human; settings: for GP IIb/IIIa (mean) log fluorescence intensity / GP IIb/IIIa (peak) log fluorescence intensity: Whole Blood; for GPIIb/IIIa expression (FIG. 1), in words: sertraline 18.1, 44.7 or 85.3 ng/ml, NDMS 31.1, 64.1, 143.0 ng/ml; for GPIIb/IIIa expression (FIG. 7), in words: whole blood, post-coronary angioplasty patient, increasing concentrations
Text: For ex vivo assessment of the SSRIs effect on a PAM, a level of a PAM can be assessed by flow cytometry by first obtaining a sample that comprises platelets and then contacting the sample with a platelet activation agonist, such as phorbol myristate acetate (PMA), ADP (adenosine diphosphate), thrombin, collagen, and/or TRAP (thrombin receptor activating peptide), under conditions suitable for activation of platelets in the sample. The sample is in contact with the agonist preferably for a period of time effective to maximally activate the platelets. […] Then one contacts or stains the samples with a composition that comprises an anti-PAM antibody e.g., having a fluorescent label, preferably in an amount in excess of that required to bind the PAM expressed on the platelets, under conditions suitable for the formation of labeled complexes between the anti-PAM antibody and activated platelets. Then the formation of the complex in the sample is determined (detected or measured).
Four cc of blood was collected in a tube, containing 2 cc of acid-citrate-dextrose (ACD) (7.3 g citric acid, 22.0 g sodium citrate×2H2O and 24.5 glucose in a total amount of 1000 mL distilled water) and mixed well. The buffer, TBS (10 mM Tris, 0.15 M NaCl, pH 7.4) and the following fluorescein isothiocyanate (FITC) conjugated monoclonal antibodies (PharMingen, San Diego, Calif. USA, and DAKO, Calif., USA) were removed from a refrigerator and allowed to warm at room temperature (RT): CD41 (IIb/IIIa), CD31 (PECAM-1), CD62p (P-selectin), CD51/61 (Vitronectin receptor). Six amber tubes (1.25 ml) were obtained and marked. One Eppendorf tube (1.5 ml) was labeled with “Dill WB”, Patient ID #, Initial and Date. The amber tubes and Eppendorf tube were placed in the rack. […] of TBS buffer was pipetted to the labeled Eppendorf tube. The patient's whole blood tube was inverted gently twice to mix. 50 μl of whole blood was pipetted to the “Dill WB” labeled Eppendorf tube. The Eppendorf tube was capped and the diluted whole blood was mixed by inverting the Eppendorf tube gently two times 50 μl of diluted whole blood was pipetted to each amber tube. 5 μl of appropriate antibody was pipetted to the bottom of the corresponding amber tube. The tubes were covered with aluminum foil and incubated at 4° C. for 30 minutes. After incubation, 400 μl of 2% buffered paraformaldehyde was added. To prepare 2% Paraformaldehyde:Dilute 1 part 10% paraformaldehyde with 4 parts TBS. This solution was stored at 4° C. for up to one week. The amber tubes were closed with a lid tightly and stored in a refrigerator at 4° C. until the flow cytometric analysis. The samples are analyzed on a Becton Dickinson FACScan flow cytometer. The instrument is set up to measure forward light scatter (FSC), and FITC fluorescence. All parameters are collected using four decade logarithmic amplification.
The data in table 1 was obtained using the methods described herein, and in particular, in Examples 1 and 2. The levels of various PAMs were assess from samples of human volunteers. […] Baseline levels of the PAMs were also obtained (without exposure to sertraline or NDMS).

[2] = test system: platelets; assay: Platelet aggregation in platelet rich plasma (ADP or collagen); assay type: cell-based, human; settings: for platelet aggregation in PRP (FIGS. 5 and 6), in words: post-coronary angioplasty patient, activated with ADP or collagen
Protocol: Trisodium citrate (3.8%) and whole blood is immediately mixed in a 1:9 ratio, and then centrifuged at 1200 g for 2.5 minutes, to obtain platelet-rich plasma (PRP), which is kept at room temperature for use within 1 hour for platelet aggregation studies. Platelet count is determined in each PRP sample with a Coulter Counter ZM (Coulter Co., Hialeah, Fla.). Platelet numbers are adjusted to 3.50×10^8/ml for aggregation with homologous platelet-poor plasma. PRP and whole blood aggregation tests are performed simultaneously. Whole blood is diluted 1.1 with the 0.5 ml PBS, and then swirled gently to mix . The cuvette with the stirring bar is placed in the incubation well and allowed to warm to 37° C. for 5 minutes. Then the sample are transferred to the assay well. An electrode is placed in the sample cuvette. Platelet aggregation is stimulated with 5 μM ADP, 1 μg/ml collagen, and 0.75 mM arachidonic acid. All agonists are obtained from Chronolog Corporation (Hawertown, Pa.). Platelet aggregation studies are performed using a Chrono-Log Whole Blood Lumi-Aggregometer (model 560 -Ca). Platelet aggregability are expressed as the percentage of light transmittance change from baseline using platelet-poor plasma as a reference at the end of recording time for plasma samples, or as a change in electrical impedance for whole blood samples. Aggregation curves are recorded for 4 minutes and analyzed according to internationally established standards using Aggrolinkg® software.

[3] = healthy volunteers, desmethylsertraline 31.1 ng/ml
[4] = healthy volunteers, desmethylsertraline 64.2 ng/ml
[5] = healthy volunteers, desmethylsertraline 143 ng/ml
[6] = post-angioplasty patient on aspirin, desmethylsertraline 31.1 ng/ml
[7] = post-angioplasty patient on aspirin, desmethylsertraline 64.2 ng/ml
[8] = post-angioplasty patient on aspirin, desmethylsertraline 143 ng/ml
[9] = whole blood from a healthy volunteer
[10] = healthy volunteers, sertraline 18.1 ng/ml
[11] = healthy volunteers, sertraline 44.7 ng/ml
[12] = healthy volunteers, sertraline 85.3 ng/ml
[13] = post-angioplasty patient on aspirin, sertraline 18.1 ng/ml
[14] = post-angioplasty patient on aspirin, sertraline 44.7 ng/ml
[15] = post-angioplasty patient on aspirin, sertraline 85.3 ng/ml

N[C@H]1CC[C@@H](c2ccc(Cl)c(Cl)c2)c2ccccc21 [Desmethyl sertraline, N-desmethylsertraline]
GP IIb/IIIa (mean) log fluorescence intensity [1, 3]: 346 | GP IIb/IIIa (peak) log fluorescence intensity [1, 3]: 340 | GP IIb/IIIa (mean) log fluorescence intensity [1, 4]: 403 | GP IIb/IIIa (peak) log fluorescence intensity [1, 4]: 355 | GP IIb/IIIa (mean) log fluorescence intensity [1, 5]: 314 | GP IIb/IIIa (peak) log fluorescence intensity [1, 5]: 264 | GP IIb/IIIa (mean) log fluorescence intensity [1, 6]: 277 | GP IIb/IIIa (peak) log fluorescence intensity [1, 6]: 268 | GP IIb/IIIa (mean) log fluorescence intensity [1, 7]: 219 | GP IIb/IIIa (peak) log fluorescence intensity [1, 7]: 245 | GP IIb/IIIa (mean) log fluorescence intensity [1, 8]: 242 | GP IIb/IIIa (peak) log fluorescence intensity [1, 8]: 232 | GPIIb/IIIa expression, NDMS compared with sertraline (FIG. 1) [1, 9]: more effectively decreased the expression of GPIIb/IIIa | GPIIb/IIIa expression (FIG. 1), in words [1, 9]: dose dependent decrease in the expression | GPIIb/IIIa expression (FIG. 7), in words [1]: striking decreases in expression | platelet aggregation in PRP (FIGS. 5 and 6), in words ([2]; PRP): decrease in platelet aggregation

CN[C@H]1CC[C@@H](c2ccc(Cl)c(Cl)c2)c2ccccc21 [sertraline]
GP IIb/IIIa (mean) log fluorescence intensity [1, 10]: 479 | GP IIb/IIIa (peak) log fluorescence intensity [1, 10]: 418 | GP IIb/IIIa (mean) log fluorescence intensity [1, 11]: 476 | GP IIb/IIIa (peak) log fluorescence intensity [1, 11]: 437 | GP IIb/IIIa (mean) log fluorescence intensity [1, 12]: 498 | GP IIb/IIIa (peak) log fluorescence intensity [1, 12]: 437 | GP IIb/IIIa (mean) log fluorescence intensity [1, 13]: 252 | GP IIb/IIIa (peak) log fluorescence intensity [1, 13]: 266 | GP IIb/IIIa (mean) log fluorescence intensity [1, 14]: 230 | GP IIb/IIIa (peak) log fluorescence intensity [1, 14]: 244 | GP IIb/IIIa (mean) log fluorescence intensity [1, 15]: 198 | GP IIb/IIIa (peak) log fluorescence intensity [1, 15]: 217 | GPIIb/IIIa expression (FIG. 1), in words [1, 9]: dose dependent decrease in the expression | GPIIb/IIIa expression (FIG. 7), in words [1]: striking decreases in expression | percent of platelet aggregation (FIGS. 2 and 3), in words ([2]; PRP, healthy volunteer, induced with ADP or collagen, sertraline 18.1, 44.7 or 85.3 ng/ml): decreases with increasing amounts of sertraline | platelet aggregation in PRP (FIGS. 5 and 6), in words ([2]; PRP): decrease in platelet aggregation | ADP-, and collagen-induced platelet aggregation in plasma (in vitro), in words ([2]; healthy controls and patients with coronary artery disease, including those on aspirin): Dose-dependent inhibition
